# Organism: Rattus norvegicus
# Assay: DrugMatrix - Regimen: Daily Repeat
# Type: toxicity, organism-based, Sprague-Dawley
# Design: regimen Daily Repeat, gender Male, age 6-8 weeks
# Conditions: in vivo, po, route oral GAVAGE, […]; for ABSOLUTE BASOPHIL / ABSOLUTE EOSINOPHIL / ABSOLUTE LYMPHOCYTE / ABSOLUTE MONOCYTE / ABSOLUTE SEGMENTED NEUTROPHIL / BASOPHIL / EOSINOPHIL / ERYTHROCYTE COUNT / HEMATOCRIT / HEMOGLOBIN / LEUKOCYTE COUNT / LYMPHOCYTE / MEAN CORPUSCULAR HEMOGLOBIN / MEAN CORPUSCULAR HEMOGLOBIN CONCENTRATION / MEAN CORPUSCULAR VOLUME / MONOCYTE / NEUTROPHIL / NUCLEATED RED BLOOD CELLS / PLATELET COUNT: tissue Blood; for ALANINE AMINOTRANSFERASE / ALBUMIN / ALKALINE PHOSPHATASE / ASPARTATE AMINOTRANSFERASE / BLOOD UREA NITROGEN / CARBON DIOXIDE / CHLORIDE / CHOLESTEROL / CREATINE PHOSPHOKINASE / CREATININE / GLUCOSE / LACTATE DEHYDROGENASE / LIPASE / PHOSPHORUS / POTASSIUM / SODIUM / TOTAL BILIRUBIN / TOTAL PROTEIN / URIC ACID: tissue Plasma
# [1] = 0 mg/kg, 72 h, dose level Control, time 3 day
# [2] = 0 mg/kg, 120 h, dose level Control, time 5 day
# [3] = 100 mg/kg, 72 h, dose level Low, time 3 day
smiles,measurement,setting,value
CCn1cc(C(=O)O)c(=O)c2cc(F)c(N3CCNCC3)nc21 [ENOXACIN],ABSOLUTE BASOPHIL,[1],0 CELLS/uL
same,ABSOLUTE EOSINOPHIL,[1],104.17 CELLS/uL
same,ABSOLUTE LYMPHOCYTE,[1],14547 CELLS/uL
same,ABSOLUTE MONOCYTE,[1],292 CELLS/uL
same,ABSOLUTE SEGMENTED NEUTROPHIL,[1],1640.17 CELLS/uL
same,BASOPHIL,[1],0%
same,EOSINOPHIL,[1],0.67%
same,ERYTHROCYTE COUNT,[1],5.35 x10E6/uL
same,HEMATOCRIT,[1],33.67%
same,HEMOGLOBIN,[1],13.38 G/DL
same,LEUKOCYTE COUNT,[1],16.58 x10E3/uL
same,LYMPHOCYTE,[1],87.5%
same,MEAN CORPUSCULAR HEMOGLOBIN,[1],25.05 pg
same,MEAN CORPUSCULAR HEMOGLOBIN CONCENTRATION,[1],39.78 G/DL
same,MEAN CORPUSCULAR VOLUME,[1],62.97 fL
same,MONOCYTE,[1],1.83%
same,NEUTROPHIL,[1],10%
same,NUCLEATED RED BLOOD CELLS,[1],0 /100WBC
same,PLATELET COUNT,[1],1274.5 x10E3/uL
same,ALANINE AMINOTRANSFERASE,[1],76.83 u/L
same,ALBUMIN,[1],3.97 G/DL
same,ALKALINE PHOSPHATASE,[1],347 u/L
same,ASPARTATE AMINOTRANSFERASE,[1],97.17 u/L
same,BLOOD UREA NITROGEN,[1],14.33 mg/dL
same,CARBON DIOXIDE,[1],25.5 mmol/L
same,CHLORIDE,[1],100.33 MEQ/L
same,CHOLESTEROL,[1],68.67 mg/dL
same,CREATINE PHOSPHOKINASE,[1],659.17 u/L
same,CREATININE,[1],0.32 mg/dL
same,GLUCOSE,[1],160.67 mg/dL
same,LACTATE DEHYDROGENASE,[1],271.5 u/L
same,LIPASE,[1],11.67 u/L
same,PHOSPHORUS,[1],10.65 mg/dL
same,POTASSIUM,[1],5.95 MEQ/L
same,SODIUM,[1],139.65 MEQ/L
same,TOTAL BILIRUBIN,[1],0.2 mg/dL
same,TOTAL PROTEIN,[1],5.72 G/DL
same,URIC ACID,[1],1.37 mg/dL
same,ABSOLUTE BASOPHIL,[2],0 CELLS/uL
same,ABSOLUTE EOSINOPHIL,[2],331.5 CELLS/uL
same,ABSOLUTE LYMPHOCYTE,[2],15021.67 CELLS/uL
same,ABSOLUTE MONOCYTE,[2],376.5 CELLS/uL
same,ABSOLUTE SEGMENTED NEUTROPHIL,[2],3070.33 CELLS/uL
same,BASOPHIL,[2],0%
same,EOSINOPHIL,[2],1.83%
same,ERYTHROCYTE COUNT,[2],5.24 x10E6/uL
same,HEMATOCRIT,[2],33.22%
same,HEMOGLOBIN,[2],13.2 G/DL
same,LEUKOCYTE COUNT,[2],18.8 x10E3/uL
same,LYMPHOCYTE,[2],79.67%
same,MEAN CORPUSCULAR HEMOGLOBIN,[2],25.17 pg
same,MEAN CORPUSCULAR HEMOGLOBIN CONCENTRATION,[2],39.73 G/DL
same,MEAN CORPUSCULAR VOLUME,[2],63.38 fL
same,MONOCYTE,[2],2%
same,NEUTROPHIL,[2],16.5%
same,NUCLEATED RED BLOOD CELLS,[2],0 /100WBC
same,PLATELET COUNT,[2],1142.67 x10E3/uL
same,ALANINE AMINOTRANSFERASE,[2],52.5 u/L
same,ALBUMIN,[2],3.9 G/DL
same,ALKALINE PHOSPHATASE,[2],284.5 u/L
same,ASPARTATE AMINOTRANSFERASE,[2],81.33 u/L
same,BLOOD UREA NITROGEN,[2],16 mg/dL
same,CARBON DIOXIDE,[2],25.33 mmol/L
same,CHLORIDE,[2],99.5 MEQ/L
same,CHOLESTEROL,[2],74.83 mg/dL
same,CREATINE PHOSPHOKINASE,[2],448.33 u/L
same,CREATININE,[2],0.37 mg/dL
same,GLUCOSE,[2],164.17 mg/dL
same,LACTATE DEHYDROGENASE,[2],290.67 u/L
same,LIPASE,[2],6.83 u/L
same,PHOSPHORUS,[2],11.5 mg/dL
same,POTASSIUM,[2],6.28 MEQ/L
same,SODIUM,[2],139.5 MEQ/L
same,TOTAL BILIRUBIN,[2],0.13 mg/dL
same,TOTAL PROTEIN,[2],5.55 G/DL
same,URIC ACID,[2],1.12 mg/dL
same,ABSOLUTE BASOPHIL,[3],0 CELLS/uL
same,ABSOLUTE EOSINOPHIL,[3],0 CELLS/uL
same,ABSOLUTE LYMPHOCYTE,[3],5797 CELLS/uL
same,ABSOLUTE MONOCYTE,[3],86.67 CELLS/uL
same,ABSOLUTE SEGMENTED NEUTROPHIL,[3],549.67 CELLS/uL
same,BASOPHIL,[3],0%
same,EOSINOPHIL,[3],0%
same,ERYTHROCYTE COUNT,[3],5.41 x10E6/uL
same,HEMATOCRIT,[3],34.57%
same,HEMOGLOBIN,[3],13.57 G/DL
same,LEUKOCYTE COUNT,[3],6.43 x10E3/uL
same,LYMPHOCYTE,[3],90%
same,MEAN CORPUSCULAR HEMOGLOBIN,[3],25.13 pg
same,MEAN CORPUSCULAR HEMOGLOBIN CONCENTRATION,[3],39.27 G/DL
same,MEAN CORPUSCULAR VOLUME,[3],64.03 fL
same,MONOCYTE,[3],1.33%
same,NEUTROPHIL,[3],8.67%
same,NUCLEATED RED BLOOD CELLS,[3],0 /100WBC
same,PLATELET COUNT,[3],1201 x10E3/uL
same,ALANINE AMINOTRANSFERASE,[3],52.33 u/L
same,ALBUMIN,[3],3.9 G/DL
same,ALKALINE PHOSPHATASE,[3],346.33 u/L
same,ASPARTATE AMINOTRANSFERASE,[3],78 u/L
same,BLOOD UREA NITROGEN,[3],14 mg/dL
same,CARBON DIOXIDE,[3],24.67 mmol/L
same,CHLORIDE,[3],103 MEQ/L
same,CHOLESTEROL,[3],70.33 mg/dL
same,CREATINE PHOSPHOKINASE,[3],221.67 u/L
same,CREATININE,[3],0.12 mg/dL
same,GLUCOSE,[3],172.67 mg/dL
same,LACTATE DEHYDROGENASE,[3],139.33 u/L
same,LIPASE,[3],10 u/L
same,PHOSPHORUS,[3],11.1 mg/dL
same,POTASSIUM,[3],5.8 MEQ/L
same,SODIUM,[3],142.37 MEQ/L
same,TOTAL BILIRUBIN,[3],0.13 mg/dL
same,TOTAL PROTEIN,[3],5.57 G/DL
same,URIC ACID,[3],1.63 mg/dL

# Reference: ChEMBL document CHEMBL3885881, “DrugMatrix”
